Data reported in US20110092505A1, “ORGANIC COMPOUNDS” (priority 2008, published 2011).
pIC50: −log10 of the molar value.

What was measured:
protein kinase D1 (PKD1) = biological target: T1, protein kinase D1 (PKD1) (Homo sapiens, UniProt Q15139); experiment: PKD1 TR-FRET (LANCE) kinase assay; type: biochemical; details: full length wild-type enzyme, 20 μM ATP, syntide-2 substrate; read-out: Inhibitory Activity PKD1
T1 construct: This assay is performed with full length wild-type enzyme that is expressed and purified from Sf9 insect cells; made in house; host or cells: Sf9 insect cells
T1 sequence (Q15139 1-912): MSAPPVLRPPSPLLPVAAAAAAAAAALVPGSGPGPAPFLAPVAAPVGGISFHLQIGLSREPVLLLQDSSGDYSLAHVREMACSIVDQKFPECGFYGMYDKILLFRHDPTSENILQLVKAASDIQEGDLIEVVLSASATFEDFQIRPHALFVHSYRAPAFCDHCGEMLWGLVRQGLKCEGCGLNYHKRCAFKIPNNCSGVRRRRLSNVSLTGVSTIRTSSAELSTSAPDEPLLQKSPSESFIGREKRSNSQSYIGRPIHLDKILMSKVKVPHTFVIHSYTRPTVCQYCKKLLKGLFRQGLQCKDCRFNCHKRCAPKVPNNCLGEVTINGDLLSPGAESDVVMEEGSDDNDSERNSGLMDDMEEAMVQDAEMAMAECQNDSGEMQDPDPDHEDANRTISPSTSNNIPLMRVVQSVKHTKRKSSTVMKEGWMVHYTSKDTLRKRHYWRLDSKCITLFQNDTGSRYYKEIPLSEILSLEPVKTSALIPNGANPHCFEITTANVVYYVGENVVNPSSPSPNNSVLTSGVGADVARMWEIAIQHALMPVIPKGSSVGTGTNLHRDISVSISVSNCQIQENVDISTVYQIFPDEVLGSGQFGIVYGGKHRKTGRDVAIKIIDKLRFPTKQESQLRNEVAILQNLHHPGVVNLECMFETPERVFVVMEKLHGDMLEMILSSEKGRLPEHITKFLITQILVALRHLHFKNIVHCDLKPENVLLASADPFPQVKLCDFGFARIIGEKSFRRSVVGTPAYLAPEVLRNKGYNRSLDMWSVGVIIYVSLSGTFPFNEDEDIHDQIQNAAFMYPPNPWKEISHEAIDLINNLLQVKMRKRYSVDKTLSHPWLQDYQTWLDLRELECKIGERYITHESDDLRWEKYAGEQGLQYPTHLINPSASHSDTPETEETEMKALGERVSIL
Source text: (§1) The assay to measure protein kinase D1 (PKD1) activity is a time-resolved fluorescence resonance transfer (TR-FRET) assay using PerkinElmer's LANCE™ technology. In this case, a biotinylated syntide-2 peptide is used as the substrate in this reaction. Phosphorylation of the syntide-2 substrate is detected by a specific antibody that recognizes the phosphorylated peptide. A second fluorophore, APC, is conjugated to streptavidin that binds the biotinylated syntide-2 peptide. […] Therefore, when the europium labeled secondary antibody binds on the phosphorylated peptide, it is brought into close contact with the APC and excites this fluorophore.
(§2) This assay is performed with full length wild-type enzyme that is expressed and purified from Sf9 insect cells. The reaction buffer consists of 35 mM Tris-HCl pH7.5, 5 mM MgCl2, 0.02% Tween-20, 20 μM ATP, 1 mM DTT and 0.2 μg/mL PKD1 enzyme. The enzyme reaction is initiated by the addition of 2 μM syntide-2 peptide substrate and the reaction carried out for 50 minutes at room temperature. The reaction is stopped by a stop/detection Buffer consisting of 50 mM EDTA, 0.18 mg/mL rabbit polyclonal anti-phospho Syntide-2 antibody, 0.5 nM europium labeled anti-rabbit IgG and 10 nM streptavidin conjugated APC. […] IC50 values are calculated using an Activity Base (IDBS) software program.

protein kinase D2 (PKD2) = biological target: T2, protein kinase D2 (PKD2) (Homo sapiens, UniProt Q9BZL6); experiment: PKD2 TR-FRET (LANCE) kinase assay; type: biochemical; details: full length wild-type enzyme, 20 μM ATP, syntide-2 substrate; read-out: Inhibitory Activity PKD2
T2 construct: This assay is performed with full length wild-type enzyme purchase from Invitrogen; purchased Invitrogen
T2 sequence (Q9BZL6 1-878): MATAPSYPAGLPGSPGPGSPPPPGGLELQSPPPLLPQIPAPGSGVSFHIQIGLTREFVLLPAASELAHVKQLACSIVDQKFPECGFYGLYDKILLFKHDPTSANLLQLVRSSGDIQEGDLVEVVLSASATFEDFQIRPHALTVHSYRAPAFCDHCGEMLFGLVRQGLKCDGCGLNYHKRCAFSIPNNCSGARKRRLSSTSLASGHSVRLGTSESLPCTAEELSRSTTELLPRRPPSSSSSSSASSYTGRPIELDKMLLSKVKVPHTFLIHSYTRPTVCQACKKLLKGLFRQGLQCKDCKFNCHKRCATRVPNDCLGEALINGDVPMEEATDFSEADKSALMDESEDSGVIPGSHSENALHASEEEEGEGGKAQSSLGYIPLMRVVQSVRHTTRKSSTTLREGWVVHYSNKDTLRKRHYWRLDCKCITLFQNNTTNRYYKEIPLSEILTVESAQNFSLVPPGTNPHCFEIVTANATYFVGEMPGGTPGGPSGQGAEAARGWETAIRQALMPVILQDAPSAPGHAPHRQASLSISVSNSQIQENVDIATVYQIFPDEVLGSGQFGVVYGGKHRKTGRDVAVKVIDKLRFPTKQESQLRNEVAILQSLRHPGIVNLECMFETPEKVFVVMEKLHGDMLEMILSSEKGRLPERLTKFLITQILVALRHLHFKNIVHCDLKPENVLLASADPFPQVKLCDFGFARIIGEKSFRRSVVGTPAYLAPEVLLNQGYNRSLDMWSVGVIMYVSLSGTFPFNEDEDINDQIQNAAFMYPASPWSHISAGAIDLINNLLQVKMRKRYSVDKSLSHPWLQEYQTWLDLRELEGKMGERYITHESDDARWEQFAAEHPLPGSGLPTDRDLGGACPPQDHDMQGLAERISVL
Source text: as §1, with “D2 (PKD2)” for “D1 (PKD1)”
as §2, with “purchase” for “that is expressed and purified”, “Invitrogen.” for “Sf9 insect cells.”, “PKD2” for “PKD1”, “APC. After a one hour incubation with the stop/detection buffer, the reaction is read on an Envision 2100 Reader using a LANCE™ Eu/APC dual protocol.” for “APC.”

| Compound | pIC50 (protein kinase D1 (PKD1)) | pIC50 (protein kinase D2 (PKD2)) |
| --- | --- | --- |
| CS(=O)(=O)c1cc(-c2ccnc(NC3CCCCC3)c2)nc(N2CCNCC2)c1 [Cyclohexyl-(4-methanesulfonyl-6-piperazin-1-yl-[2,4′]bipyridinyl-2′-yl)-amine] | 7.20 | 6.13 |
| FC(F)(F)c1cc(-c2ccnc(NC3CCCCC3)c2)nc(N2CCNCC2)c1 [Cyclohexyl-(6-piperazin-1-yl-4-trifluoromethyl-[2,4′]bipyridinyl-2′-yl)amine] | 7.70 | 7.00 |
| NC(=O)c1cc(-c2ccnc(NC3CCCCC3)c2)nc(N2CCN3CCC[C@@H]3C2)c1 [2′-Cyclohexylamino-6-(R)-hexahydro-pyrrolo[1,2-a]pyrazin-2-yl-[2,4′]bipyridinyl-4-carboxylic acid amide] | 7.46 | 6.53 |
| NC(=O)c1cc(-c2ccnc(NCCc3ccc(O)cc3)c2)nc(N2CCNCC2)c1 [2′-[2-(4-Hydroxyphenyl)ethylamino]-6-piperazin-1-yl-[2,4′]bipyridinyl-4-carboxylic acid amide] | 8.70 | 6.40 |
| O=[N+]([O-])c1cc(-c2ccnc(NC3CCCCC3)c2)nc(N2CCNCC2)c1 [Cyclohexyl-(4-nitro-6-piperazin-1-yl-[2,4′]bipyridinyl-2′-yl)-amine] | 8.40 | 7.21 |
| O=C1NCc2c1cc(-c1ccnc(NC3CCCCC3)c1)nc2N1CCn2cnnc2C1 [6-(2-Cyclohexylamino-pyridin-4yl)-4-(5,6-dihydro-8H-[1,2,4]triazolo[4,3-a]pyrazin-7-yl)-2,3-dihydro-pyrrolo[3,4-c]pyridin-1-one] | 7.25 | 6.33 |
| N#CCNC(=O)c1ccc(-c2ccnc(NC3CCCCC3)c2)nc1N1CCNCC1 [2′-Cyclohexylamino-6-piperazin-1-yl-[2,4′]bipyridinyl-5-carbonxylic acid cyanomethyl-amide] | 7.22 | 6.55 |
| NC(=O)c1cc(-c2ccnc(NCc3ccccc3Cl)c2)nc(N2CCNCC2)c1 [2′-(2-Chlorobenzylamino-6-piperazin-1-yl-[2,4′]bipyridinyl-4-carboxylic acid amide] | 7.60 | 6.43 |

The remaining molecules from weak to strong by pIC50 (protein kinase D1 (PKD1)), led by results:

| pIC50 (protein kinase D1 (PKD1)) | pIC50 (protein kinase D2 (PKD2)) | Compound |
| --- | --- | --- |
| 6.74 | 5.94 | Fc1ccc(Nc2cc(-c3ccnc(NC4CCCCC4)c3)nc(N3CCNCC3)c2)cc1 [N*2′*-Cyclohexyl-N*4*-(4-fluoro-phenyl)-6-piperazin-1-yl-[2,4′]bipyridinyl-4,2′-diamine] |
| 7.08 | 6.30 | COC(=O)c1ccc(-c2ccnc(NC3CCCCC3)c2)nc1N1CCNCC1 [2′-Cyclohexylamino-6-piperazin-1-yl-[2,4′]bipyridinyl-5-carboxylic acid methyl ester] |
| 7.92 | 6.67 | c1cc(-c2cc(-c3nnco3)cc(N3CCNCC3)n2)cc(NC2CCCCC2)n1 [Cyclohexyl-(4-[1,3,4]oxadiazol-2-yl-6-piperazin-1-yl-[2,4′]bipyridinyl-2′-yl)-amine] |
| 8.00 | 6.44 | Nc1cc(-c2ccnc(NC3CCCCC3)c2)nc(N2CCNCC2)c1 [N*2′*-Cyclohexyl-6-piperazin-1-yl-[2,4′]bipyridinyl-4,2′-diamine] |
